Literature values, collected in patent publication US20050114109A1, “STRUCTURE OF INTEGRIN ALPHA V-beta 3 EXTRACELLULAR DOMAIN COMPLEXED WITH LIGAND” (priority 2002, published 2005).
pIC50: −log10 of the molar value.

System: native or extracellular αVβ3
Settings: physiologic ligands, from Mehta et al. 1998 and Dechantsreiter et al. 1999, read-out: IC50, competes with binding of physiologic ligands to αVβ3

Sequence of native or extracellular αVβ3 (P06756 31-889 limits assumed): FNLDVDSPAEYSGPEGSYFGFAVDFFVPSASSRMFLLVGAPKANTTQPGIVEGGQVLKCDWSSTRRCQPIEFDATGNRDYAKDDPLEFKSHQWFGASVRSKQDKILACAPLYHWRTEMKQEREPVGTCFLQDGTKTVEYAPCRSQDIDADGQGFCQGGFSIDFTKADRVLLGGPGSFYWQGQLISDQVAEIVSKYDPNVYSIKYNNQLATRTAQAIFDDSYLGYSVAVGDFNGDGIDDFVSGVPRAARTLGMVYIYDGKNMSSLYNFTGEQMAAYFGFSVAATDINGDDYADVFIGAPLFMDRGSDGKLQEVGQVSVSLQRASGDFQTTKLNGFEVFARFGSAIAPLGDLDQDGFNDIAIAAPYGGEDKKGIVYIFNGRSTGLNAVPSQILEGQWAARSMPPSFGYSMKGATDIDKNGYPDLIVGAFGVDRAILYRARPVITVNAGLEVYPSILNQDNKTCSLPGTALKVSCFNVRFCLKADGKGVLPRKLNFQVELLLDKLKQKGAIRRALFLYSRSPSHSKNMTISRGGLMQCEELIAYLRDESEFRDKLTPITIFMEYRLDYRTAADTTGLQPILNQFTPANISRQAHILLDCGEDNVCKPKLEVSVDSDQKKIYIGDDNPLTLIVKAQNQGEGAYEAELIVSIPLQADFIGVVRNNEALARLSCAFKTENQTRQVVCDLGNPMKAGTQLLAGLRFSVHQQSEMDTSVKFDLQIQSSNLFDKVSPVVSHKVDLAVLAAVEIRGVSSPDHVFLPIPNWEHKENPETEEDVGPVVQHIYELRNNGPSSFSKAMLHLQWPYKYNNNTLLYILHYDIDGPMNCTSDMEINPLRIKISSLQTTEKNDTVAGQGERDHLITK
Sequence of native or extracellular αVβ3 (P06756 891-987 limits assumed): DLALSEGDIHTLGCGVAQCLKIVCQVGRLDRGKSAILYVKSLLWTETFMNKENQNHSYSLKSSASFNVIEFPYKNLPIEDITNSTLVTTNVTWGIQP
Sequence of native or extracellular αVβ3 (P05106 27-625 limits assumed, further chain): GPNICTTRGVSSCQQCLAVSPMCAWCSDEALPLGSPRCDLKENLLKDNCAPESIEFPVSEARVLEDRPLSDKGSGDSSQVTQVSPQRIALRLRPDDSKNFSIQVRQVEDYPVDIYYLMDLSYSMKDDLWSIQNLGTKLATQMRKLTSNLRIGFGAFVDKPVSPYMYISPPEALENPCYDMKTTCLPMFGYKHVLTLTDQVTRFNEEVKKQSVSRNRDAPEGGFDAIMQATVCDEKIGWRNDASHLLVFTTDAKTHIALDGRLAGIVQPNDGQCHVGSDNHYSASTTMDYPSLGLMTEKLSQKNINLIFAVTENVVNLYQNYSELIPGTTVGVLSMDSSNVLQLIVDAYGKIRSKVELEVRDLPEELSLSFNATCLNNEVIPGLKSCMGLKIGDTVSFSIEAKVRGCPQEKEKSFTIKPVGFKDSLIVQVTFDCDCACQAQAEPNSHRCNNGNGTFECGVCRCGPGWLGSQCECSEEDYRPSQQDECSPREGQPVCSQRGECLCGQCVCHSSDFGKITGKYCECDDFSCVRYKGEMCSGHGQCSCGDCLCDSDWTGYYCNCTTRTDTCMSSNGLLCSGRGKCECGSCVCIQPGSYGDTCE

Arg-Gly-Asp-(D-Phe)-(N-methyl-Val) [Cyclo(RGDf-N-Me-V), cyclic pentapeptide ligand of αVβ3, in clinical trials as an anti-angiogenic therapeutic]
pIC50: 8.52 to 9.30
